{
  "source": "patent US20050119224A1",
  "about": "“Use of n-acetyl-d-glucosamine in the manufacture of pharmaceutical useful for adjuvant treatment of perianal disease” (priority 2001, published 2005)",
  "key": {"Pseudomonas aeruginosa": {"system": "Pseudomonas aeruginosa", "assay": "Test of resistance to field planting (Pseudomonas aeruginosa planting model)", "format": "in vivo, Mice of Kunming Species", "conditions": "three dosages (high, middle, low), infused abdominally each day, feces culture", "excerpt": "1. Animal: Mice of Kunming Species, Provided by the 3rd Military Medical University P.R. China.\nFirstly, the animals used for experiment were infused abdominally with a suspension of Pseudomonas aeruginosa so as to make a Pseudomonas aeruginosa planting model, the mice that have Pseudomonas aeruginosa in the feces specimen cultured continuously for three days are deemed as positive. 32 mices which were positive in the experiment for making model were selected and divided into four groups, that is, three experimental groups with different dosages and one control group, eight mice in each group. The experimental groups are infused abdominally with N-acetyl-D glucosamine each day according to a schedule, while the control group is infused with saline solution. Cultivate the excrement every day, observe the saturation of Pseudomonas aeruginosa planting growth."}, "liver lysosome membrane": {"system": "liver lysosome membrane", "assay": "Test of stabilizing lysosome membrane (rat model of endotoxin shock)", "format": "in vivo, wistar rat", "conditions": "rat with endotoxin shock, versus saline control", "excerpt": "• 1. Animals: wistar rat, provided by the 3rd Military Medical University P.R. China. • 2. Method: setting up a rat model of endotoxin shock, at the same time, for the liver lysosome of rat, carry out a test of stabilizing membranes in vivo and in vitro. The model animals were divided into two groups, in the experimental group, N-acetyl-D-glucosamine was used to carry out the treatment, in the control group, saline solution was used to carry out the same treatment. The condition of liver lysosome mambrane was reflected by the activity of acidic phosphatase (ACP). • 3. Result: the activity of free ACP in the control group and that in the experimental group are obviously different. • 4. […] V. Human on Trial"}, "[1]": {"assay": "Human on trial (clinic test, peri-anal diseases)", "format": "in vivo", "conditions": "pharmaceutical preparations made from the compound, humans suffering from peri-anal diseases"}},
  "data": [
    {"molecule": "CC(=O)N[C@@H]1[C@@H](O)[C@H](O)[C@@H](CO)O[C@H]1O", "note": "[compound of formula (I), N-acetyl-D-glucosamine]", "values": [
      {"measurement": "resistance to Pseudomonas aeruginosa planting in intestines", "setting": "Pseudomonas aeruginosa", "value": "able to effectively resist Pseudomonas aeruginosa in intestines"},
      {"measurement": "stabilization of liver lysosome membrane", "setting": "liver lysosome membrane; in vivo and in vitro", "value": "able to effectively stabilize liver lysosome membrane"},
      {"measurement": "release of acidic phosphatase (ACP)", "setting": "liver lysosome membrane; liver lysosome", "value": "decrease the release of acidic phosphatase"},
      {"measurement": "relief of peri-anal symptoms", "setting": "[1]", "value": "able to eliminate or relieve quickly the peri-anal uncomfortableness, pain, exudation, pruritus and the like"}
    ]}
  ]
}
